Target: His-GST tagged PARG (Homo sapiens, UniProt Q86W56)
Assay: In vitro PARG assay (TR-FRET)
Format: biochemical
Settings: 4 pM His-GST tagged PARG, 30 nM Bio PARylated PARP1 substrate, 20 min at room temperature, TR-FRET Em 665/Em 615
Description: The in vitro PARG assay experiment was conducted in a standard 384-well plate with a total volume of 15 µL. To a 384-well plate containing the test compound was added 5 µL of an enzyme reaction mixture (50 mM Tris-HCL pH 7.5, 50 mM KCL, 0.01% Triton X-100, 0.01% BSA, and 4 pM His-GST tagged PARG). The plate was incubated at room temperature for 10 min, and then 5 µL of a substrate mixture (50 mM Tris-HCL pH 7.5, 50 mM KCL, 0.01% Triton X-100, 0.01% BSA, and 30 nM Bio PARylated PARP1) was added to initiate the reaction. The plate was further incubated at room temperature for 20 min, and then 5 µL of a detection reagent was added to terminate the reaction. The detection reagent was prepared from a buffer (50 mM Tris-HCl pH 7.5, 50 mM KCL, 0.01% Triton X-100, and 0.01% BSA), 3 µM compound PDD00017273, 1.5× Mab anti-6HIS XL665 (Cisbio: 61HISXLA), and 1.5× streptavidin terbium cryptate (Cisbio: 610SATLA). The final concentrations of the compound PDD00017273, the 1.5× Mab anti-6HIS XL665 (Cisbio: 61HISXLA), and the 1.5× streptavidin terbium cryptate were 1 µM, 0.5×, and 0.5×, respectively. After incubation in the dark at room temperature for 120 min, TR-FRET signals were measured at Ex 340, Em 665, and Em 615. The ratio for each well was calculated as Em 665/Em 615 (the ratio here corresponds to the ratio of fluorescence signals at the wavelengths).

His-GST tagged PARG, sequence (Q86W56 whole entry): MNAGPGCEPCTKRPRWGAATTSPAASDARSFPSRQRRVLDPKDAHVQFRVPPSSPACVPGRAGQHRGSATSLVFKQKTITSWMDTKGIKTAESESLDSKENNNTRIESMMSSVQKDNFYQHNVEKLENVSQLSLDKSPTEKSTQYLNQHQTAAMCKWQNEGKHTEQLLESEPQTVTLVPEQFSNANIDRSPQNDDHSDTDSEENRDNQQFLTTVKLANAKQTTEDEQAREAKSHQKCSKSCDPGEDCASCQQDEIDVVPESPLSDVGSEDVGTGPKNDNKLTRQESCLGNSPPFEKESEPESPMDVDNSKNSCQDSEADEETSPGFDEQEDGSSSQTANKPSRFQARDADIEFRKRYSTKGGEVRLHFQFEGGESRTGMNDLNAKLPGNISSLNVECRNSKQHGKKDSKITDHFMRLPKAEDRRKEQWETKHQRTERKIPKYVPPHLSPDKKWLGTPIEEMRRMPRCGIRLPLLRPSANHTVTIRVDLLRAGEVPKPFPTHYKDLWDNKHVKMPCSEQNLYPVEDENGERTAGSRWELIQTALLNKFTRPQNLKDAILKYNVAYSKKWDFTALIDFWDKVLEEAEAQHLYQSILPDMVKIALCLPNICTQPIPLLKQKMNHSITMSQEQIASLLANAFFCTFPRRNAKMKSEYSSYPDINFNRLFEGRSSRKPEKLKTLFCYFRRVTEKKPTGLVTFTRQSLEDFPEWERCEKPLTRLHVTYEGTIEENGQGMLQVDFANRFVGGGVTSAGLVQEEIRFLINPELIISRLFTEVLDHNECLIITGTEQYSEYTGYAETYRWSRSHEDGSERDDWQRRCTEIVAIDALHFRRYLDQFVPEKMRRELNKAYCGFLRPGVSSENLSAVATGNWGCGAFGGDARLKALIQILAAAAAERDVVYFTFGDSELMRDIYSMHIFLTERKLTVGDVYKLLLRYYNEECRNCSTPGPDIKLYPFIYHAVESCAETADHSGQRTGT

| IC50 [nM] | Structure (SMILES) |
| --- | --- |
| < 100 | C[C@H](CO)C(=O)N1CCN(c2cc(S(=O)(=O)NC3(C#N)CC3)cc3c2cnn3-c2nnc(C(F)F)s2)C[C@H]1C [EVO29351] |
| < 100 | C[C@@H]1CN(c2cc(S(=O)(=O)NC3(C)CC3)cc3c2cnn3-c2nnc(C(F)F)s2)CCN1C(=O)[C@@H](C)O [EVO29337] |
| < 100 | C[C@@H]1CN(c2cc(S(=O)(=O)NC3(C#N)CC3)cc3c2cnn3-c2nnc(C(F)F)s2)CCN1C(=O)[C@@H](C)O [EVO29285] |

Continued, compound first:

| Structure (SMILES) | IC50 [nM] |
| --- | --- |
| C[C@@H]1CN(c2cc(S(=O)(=O)NC3(C#N)CC3)cc3c2cnn3-c2nnc(C(F)F)s2)CCN1C(=O)C(O)C(C)(C)CO (single isomer, unassigned) [EVO29790P1] | < 100 |
| Cc1nnc(-n2ncc3c(N4CCN(C(=O)C(=O)C(C)(C)C)[C@H](C)C4)cc(S(=O)(=O)NC4(C#N)CC4)cc32)s1 [EVO29407] | < 100 |
| CO[C@H](C)C(=O)N1CCN(c2cc(S(=O)(=O)NC3(C)CC3)cc3c2cnn3-c2nnc(C)s2)C[C@H]1C [EVO29412] | < 100 |
| CO[C@@H](C(=O)N1CCN(c2cc(S(=O)(=O)NC3(C)CC3)cc3c2cnn3-c2nnc(C)s2)C[C@H]1C)C(C)C [EVO29421] | < 100 |
| CC(C)C(=O)C(=O)N1CCN(c2cc(S(=O)(=O)NC3(C#N)CC3)cc3c2cnn3-c2nnc(C(F)F)s2)CC1 [EVO29417] | < 100 |
| C[C@@H]1CN(c2cc(S(=O)(=O)NC3(C#N)CC3)cc3c2c(F)nn3-c2nnc(C(F)F)s2)CCN1C(=O)[C@H](O)C(C)(C)C [EVO29757] | < 100 |
| C[C@@H]1CN(c2cc(S(=O)(=O)NC3(C#N)CC3)cc3c2cnn3-c2nnc(C(F)F)s2)CCN1C(=O)C(C)(C)O [EVO29339] | < 100 |
